Test results taken from the supplement of paper PMC10307832.

Legend:
Assay in all cases: relative viability (nuclei count vs DMSO), 5 days (fraction); higher = more cells survive
[1] = compound: COC1=C(C=C(C=C1)C2=CC3=NC=CN3C(=N2)NC4=C(C=CC=N4)C(=O)N)OC [BAY61-3606] + CC(=O)c1c(C)c2cnc(Nc3ccc(N4CCNCC4)cn3)nc2n(C2CCCC2)c1=O [Palbociclib] (partner 0.5 µM)
Method in brief: (§1)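 Values are medians from duplicate plates. Each reflects relative viability, defined as the nuclei count of treated wells over that of vehicle wells. Lung cancer cell lines in 1536-well plates were pin-tool dosed one day after seeding with one drug alone or with a fixed anchor-drug dose plus five library-drug doses (not always all listed) in √10 steps, then fixed, stained and imaged at 4× after 5 days.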

[2] = compound: COC1=C(C=C(C=C1)C2=CC3=NC=CN3C(=N2)NC4=C(C=CC=N4)C(=O)N)OC [BAY61-3606] + CC(=O)Nc1cccc(-n2c(=O)n(C3CC3)c(=O)c3c(Nc4ccc(I)cc4F)n(C)c(=O)c(C)c32)c1 [Trametinib] (partner 0.02 µM)
Method in brief: as §1

[3] = compound: COC1=C(C=C(C=C1)C2=CC3=NC=CN3C(=N2)NC4=C(C=CC=N4)C(=O)N)OC [BAY61-3606] + C[C@]1(O)C[C@@H](c2nc(-c3ccc4ccc(-c5ccccc5)nc4c3)c3c(N)nccn32)C1 [Linsitinib] (partner 1 µM)
Method in brief: as §1

[4] = compound: COC1=C(C=C(C=C1)C2=CC3=NC=CN3C(=N2)NC4=C(C=CC=N4)C(=O)N)OC [BAY61-3606] + CC1(C)CCC(c2ccc(Cl)cc2)=C(CN2CCN(c3ccc(C(=O)NS(=O)(=O)c4ccc(N[C@H](CCN5CCOCC5)CSc5ccccc5)c(S(=O)(=O)C(F)(F)F)c4)cc3)CC2)C1 [Navitoclax] (partner 0.5 µM)
Method in brief: as §1

Cell Line	relative viability ([1]; first compound 0.02 µM)	relative viability ([1]; first compound 0.06325 µM)	relative viability ([1]; first compound 0.2 µM)	relative viability ([1]; first compound 0.6325 µM)	relative viability ([1]; first compound 2 µM)	relative viability ([2]; first compound 0.02 µM)	relative viability ([2]; first compound 0.06325 µM)	relative viability ([2]; first compound 0.2 µM)	relative viability ([2]; first compound 0.6325 µM)	relative viability ([2]; first compound 2 µM)	relative viability ([3]; first compound 0.02 µM)	relative viability ([3]; first compound 0.06325 µM)	relative viability ([3]; first compound 0.2 µM)	relative viability ([3]; first compound 0.6325 µM)	relative viability ([3]; first compound 2 µM)	relative viability ([4]; first compound 0.02 µM)	relative viability ([4]; first compound 0.06325 µM)	relative viability ([4]; first compound 0.2 µM)	relative viability ([4]; first compound 0.6325 µM)	relative viability ([4]; first compound 2 µM)
NCI-H727	0.737	0.588	0.637	0.635	0.631	0.392	0.382	0.423	0.42	0.387	0.258	0.184	0.386	0.188	0.354	0.45	0.512	0.419	0.525	0.33
A-427	0.484	0.521	0.544	0.524	0.479	0.902	0.755	0.782	0.798	0.817	1.14	1.07	1.06	1.06	1.15	1.03	0.983	0.962	1.06	0.914
EMC-BAC-2	0.516	0.515	0.513	0.587	0.547	0.938	0.883	0.944	1.17	1.05	0.837	0.862	0.852	0.876	0.833	1.21	1.21	1.16	1.24	1.19
NCI-H647	0.386	0.358	0.328	0.401	0.235	0.479	0.496	0.413	0.551	0.319	1.34	1.46	1.46	1.05	0.661	1.21	1.05	1.04	1.26	0.663
LCLC-97TM1	0.241	0.222	0.281	0.218	0.301	0.207	0.195	0.203	0.187	0.205	0.182		0.187	0.18	0.175	0.393		0.386	0.417	0.326
HOP-62		0.465	0.459	0.348	0.346		0.416	0.414	0.456	0.336	1.11		0.961	1.11	0.713	0.981	1.08	0.981	1.08	0.676
NCI-H1437	0.338	0.28	0.312	0.387	0.315	0.537	0.456	0.523	0.602	0.462	1.1	1.1	1.01	1.03	0.813	1.1	1.16	1.06	1.12	1.06
NCI-H1755	0.435	0.451	0.482	0.495	0.444	0.768	0.853	0.792	0.769	0.762	1.06	1.04	1.03	0.981	0.974	1.03	1.02	0.993	1.06	0.782
HARA	0.262	0.23	0.268	0.243	0.306	0.6	0.52	0.781	0.724	0.54	1.03	1.01	0.972	1.06	0.931	1.2	1.12	1.16	1.1	1.02
HCC-15	0.803	0.673	0.708	0.768	0.601	0.425	0.375	0.385	0.382	0.423	0.964	0.988	0.814	0.876	0.725	0.796	0.703	0.691	0.702	0.683
LOU-NH91	0.547	0.503	0.529	0.508	0.557	0.842	0.766	0.826	0.794	0.706	0.978	0.858	0.977	1.01	0.796	0.73	0.57	0.731	0.812	0.5
NCI-H23	0.646	0.484	0.549	0.509	0.371	0.437	0.347	0.348	0.393	0.372	0.613	0.689	0.609	0.881	0.423	0.936	0.809	0.775	0.983	0.551
NCI-H1666	0.657	0.745	0.731	0.634	0.688	0.828	0.973	0.822	0.792	0.768	0.954		0.76	0.954	0.831	1.17		1.06	0.965	1.02
NCI-H358	0.123	0.143	0.136	0.125	0.101	0.137	0.158	0.143	0.146	0.0995	0.769	0.64	0.699	0.673	0.299					
NCI-H2085	0.461	0.487	0.45	0.46	0.435	0.666	0.45	0.511	0.59	0.42	0.977	0.931	0.853	0.813	0.871	1.31	1.23	1.12	1.33	1.01
LCLC-103H	0.473	0.508	0.449	0.462	0.481	0.708	0.715	0.666	0.654	0.65	1.07	1.13	1.12	1.37	1.13					
